Counter-ions that a name gives are not always drawn.
Assays:
[1] = system: S. aureus Col8A(Meth^S)(lac^-); experiment: In vitro MIC, agar dilution; format: cell-based; settings: Staphylococcus aureus; S. aureus Col8A(Meth^S)(lac^-); read-out: minimum inhibitory concentration (MIC)
Summary of the method: (§1)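 Two-fold dilutions (128 to ≤0.25 μg/mL, in duplicate) were poured into Mueller-Hinton agar. Log-phase broth cultures were spot-inoculated at about 10^4 cfu per spot and incubated 35-36°C for 16-20 hours; the MIC was the lowest concentration inhibiting growth. Col is a high-level PBP2a producer; Col 8A is its isogenic PBP2a-lacking partner.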

[2] = system: S. aureus Col(Meth^R)(lac^-); experiment: In vitro MIC, agar dilution; format: cell-based; settings: Staphylococcus aureus, read-out: minimum inhibitory concentration (MIC)
Summary of the method: as §1

[3] = system: S. aureus ATCC 29213; experiment: In vitro MIC, agar dilution; format: cell-based; settings: Staphylococcus aureus, ATCC29213, read-out: minimum inhibitory concentration (MIC)
Summary of the method: (§2)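 Spots of about 10^4 cfu of log-phase culture were applied, and plates were incubated 16-20 h at 35-36 °C. MIC was the lowest concentration inhibiting growth.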

[4] = system: P. aeruginosa ATCC 27853; experiment: In vitro MIC, agar dilution; format: cell-based; settings: Pseudomonas aeruginosa, ATCC27853, read-out: minimum inhibitory concentration (MIC)
Summary of the method: as §2

[5] = system: S. aureus Spain #356(Meth^R); experiment: In vitro MIC, agar dilution; format: cell-based; settings: Staphylococcus aureus, read-out: minimum inhibitory concentration (MIC)
Summary of the method: as §2

[6] = system: E. faecium A491(Amp^R); experiment: In vitro MIC, agar dilution; format: cell-based; settings: Enterococcus faecium, read-out: minimum inhibitory concentration (MIC)
Summary of the method: as §2

[7] = system: E. faecium VanA(Van^R); experiment: In vitro MIC, agar dilution; format: cell-based; settings: Enterococcus faecium, read-out: minimum inhibitory concentration (MIC)
Summary of the method: as §2

[8] = system: E. coli ATCC 25992; experiment: In vitro MIC, agar dilution; format: cell-based; settings: Escherichia coli, ATCC25992, read-out: minimum inhibitory concentration (MIC)
Summary of the method: as §2

[9] = system: S. aureus 76(Meth^R)(lac^+); experiment: In vitro MIC, agar dilution; format: cell-based; settings: Staphylococcus aureus, read-out: minimum inhibitory concentration (MIC)
Summary of the method: as §2

[10] = system: S. haemolyticus 05(Meth^R); experiment: In vitro MIC, agar dilution; format: cell-based; settings: Staphylococcus haemolyticus, read-out: minimum inhibitory concentration (MIC)
Summary of the method: as §2

[11] = system: S. aureus ATCC 13709(Meth^S); experiment: In vitro MIC, agar dilution; format: cell-based; settings: Staphylococcus aureus, ATCC13709, S. aureus ATCC 13709(Meth^S); read-out: minimum inhibitory concentration (MIC)
Summary of the method: as §2

[12] = system: S. aureus PC1(Meth^S)(lac^+); experiment: In vitro MIC, agar dilution; format: cell-based; settings: Staphylococcus aureus, read-out: minimum inhibitory concentration (MIC)
Summary of the method: as §2

[13] = system: E. faecium ATCC 35667; experiment: In vitro MIC, agar dilution; format: cell-based; settings: Enterococcus faecium, ATCC35667, read-out: minimum inhibitory concentration (MIC)
Summary of the method: as §2

[14] = system: S. aureus ATCC 33593(Meth^R); experiment: In vitro MIC, agar dilution; format: cell-based; settings: Staphylococcus aureus, ATCC33593, read-out: minimum inhibitory concentration (MIC)
Summary of the method: as §2

[15] = system: E. faecalis VanB(Van^R); experiment: In vitro MIC, agar dilution; format: cell-based; settings: Enterococcus faecalis, read-out: minimum inhibitory concentration (MIC)
Summary of the method: as §2

[16] = system: E. faecalis ATCC 29212; experiment: In vitro MIC, agar dilution; format: cell-based; settings: Enterococcus faecalis, ATCC29212, read-out: minimum inhibitory concentration (MIC)
Summary of the method: as §2

[17] = system: S. aureus strain ATCC 13709 (methicillin-susceptible); experiment: Murine model for lethal bacteremic peritonitis; format: in vivo, female Swiss-Webster mice; settings: Staphylococcus aureus, ATCC13709, SC, 72 h; for responders at 1.25 mg/kg: read-out: Survivors (converted); for ED50: two equal doses, IP challenge, read-out: ED50
Summary of the method: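 Female Swiss-Webster mice were challenged IP with an LD100 inoculum in 7% hog gastric mucin, then given test drug subcutaneously in twofold increments (0.01–512 mg/kg) as two equal doses at challenge and 2 h later, 10 mice per group. Survival was scored at 72 h; PD50 (total mg/kg) was derived by probit.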

NCC(=O)NCCCSCc1cnccc1SC1=C(C(=O)O)N2C(=O)[C@@H](NC(=O)/C(=N\O)c3nc(N)sc3Cl)[C@H]2SC1 [Cmpd 35, (7R)-7-[(Z)-2-(2-amino-5-chlorothiazol-4-yl)-2-(hydroxyimino)acetamido]-3-[3-(glycyl)aminopropylthiomethylpyrid-4-ylthio]-3-cephem-4-carboxylate, trifluoroacetic acid salt]
MIC [1]: 0.25 µg/mL | MIC [2]: 2 µg/mL | MIC [3]: 0.25 µg/mL | MIC [4]: > 32 µg/mL | MIC [5]: 2 µg/mL | MIC [6]: 4 µg/mL | MIC [7]: 0.5 µg/mL | MIC [8]: 8 µg/mL | MIC [9]: 2 µg/mL | MIC [10]: 4 µg/mL | MIC [11]: 0.25 µg/mL | MIC [12]: 0.5 µg/mL | MIC [13]: 0.25 µg/mL | MIC [14]: 2 µg/mL | MIC [15]: 0.25 µg/mL | MIC [16]: ≤ 0.06 µg/mL

N=C(N)SCc1ncsc1SC1=C(C(=O)O)N2C(=O)[C@@H](NC(=O)/C(=N\O)c3csc(N)n3)[C@H]2SC1 [Cmpd 7, (7R)-7-[(Z)-2-(aminothiazol-4-yl)-2-(hydroxyimino)acetamido]-3-(4-isothioureidomethylthiazol-5-ylthio)-3-cephem-4-carboxylate, trifluoroacetic acid salt]
MIC [1]: 0.5 µg/mL | MIC [2]: 8 µg/mL | MIC [3]: 0.5 µg/mL | MIC [4]: > 32 µg/mL | MIC [5]: 8 µg/mL | MIC [6]: > 32 µg/mL | MIC [7]: 16 µg/mL | MIC [8]: 4 µg/mL | MIC [9]: 8 µg/mL | MIC [10]: 32 µg/mL | MIC [11]: 0.5 µg/mL | MIC [12]: 2 µg/mL | MIC [13]: 4 µg/mL | MIC [14]: 8 µg/mL | MIC [15]: 2 µg/mL | MIC [16]: 1 µg/mL

N=C(N)SCc1cnccc1SC1=C(C(=O)O)N2C(=O)[C@@H](NC(=O)Cc3ccccc3)[C@H]2SC1 [Cmpd 1, (7R)-7-[(phenylacetyl)amino]-3-(3-isothioureidomethylpyrid-4-ylthio)-3-cephem-4-carboxylate, trifluoroacetic acid salt]
MIC [1]: ≤ 0.06 µg/mL | MIC [2]: 4 µg/mL | MIC [3]: 0.13 µg/mL | MIC [4]: > 32 µg/mL | MIC [5]: 8 µg/mL | MIC [6]: > 32 µg/mL | MIC [7]: 8 µg/mL | MIC [8]: > 32 µg/mL | MIC [9]: 8 µg/mL | MIC [10]: 16 µg/mL | MIC [12]: 1 µg/mL | MIC [13]: 2 µg/mL | MIC [14]: 8 µg/mL | MIC [15]: 4 µg/mL | MIC [16]: 1 µg/mL | responders at 0.156 mg/kg ([17]; Dose 0.156 mg/kg, read-out: Survivors): 20% | responders at 0.3125 mg/kg ([17]; read-out: Survivors): 50% | responders at 0.625 mg/kg ([17]; read-out: Survivors): 60% | responders at 1.25 mg/kg [17]: 80% | responders at 2.5 mg/kg ([17]; read-out: Survivors): 100% | ED50 [17]: 0.39 mg/kg

N=C(N)SCc1ncsc1SC1=C(C(=O)O)N2C(=O)[C@@H](NC(=O)Cc3ccccc3)[C@H]2SC1 [Cmpd 5, (7R)-7-[(phenylacetyl)amino]-3-(4-isothioureidomethylthiazol-5-ylthio)-3-cephem-4-carboxylate, trifluoroacetic acid salt]
MIC [1]: ≤ 0.06 µg/mL | MIC [2]: 8 µg/mL | MIC [3]: 0.13 µg/mL | MIC [4]: > 32 µg/mL | MIC [5]: 16 µg/mL | MIC [6]: > 32 µg/mL | MIC [7]: 32 µg/mL | MIC [8]: > 32 µg/mL | MIC [9]: 16 µg/mL | MIC [10]: 16 µg/mL | MIC [11]: ≤ 0.06 µg/mL | MIC [12]: 0.25 µg/mL | MIC [13]: 4 µg/mL | MIC [14]: 16 µg/mL | MIC [15]: 4 µg/mL | MIC [16]: 2 µg/mL

NCCCOCc1cnccc1SC1=C(C(=O)O)N2C(=O)[C@@H](NC(=O)/C(=N\O)c3nc(N)sc3Cl)[C@H]2SC1 [Cmpd 47, (7R)-7-[(Z)-2-(2-amino-5-chlorothiazol-4-yl)-2-(hydroxyimino)acetamido]-3-(3-(3-aminopropyloxymethyl)pyrid-4-ylthio)-3-cephem-4-carboxylate, trifluoroacetic acid salt]
MIC [1]: 0.5 µg/mL | MIC [2]: 2 µg/mL | MIC [3]: 1 µg/mL | MIC [4]: > 32 µg/mL | MIC [5]: 2 µg/mL | MIC [6]: 16 µg/mL | MIC [7]: 2 µg/mL | MIC [8]: 8 µg/mL | MIC [9]: 2 µg/mL | MIC [10]: 4 µg/mL | MIC [11]: 2 µg/mL | MIC [12]: 2 µg/mL | MIC [13]: 2 µg/mL | MIC [14]: 2 µg/mL | MIC [16]: 0.13 µg/mL

N=C(N)SCc1nnsc1SC1=C(C(=O)O)N2C(=O)[C@@H](NC(=O)Cc3ccccc3)[C@H]2SC1 [Cmpd 2, (7R)-7-[(phenylacetyl)amino]-3-(4-isothioureidomethyl-1,2,3-thiadiazol-5-ylthio)-3-cephem-4-carboxylate, trifluoroacetic acid salt]
MIC [1]: ≤ 0.06 µg/mL | MIC [2]: 1 µg/mL | MIC [3]: ≤ 0.06 µg/mL | MIC [4]: > 32 µg/mL | MIC [5]: 4 µg/mL | MIC [6]: > 32 µg/mL | MIC [7]: 4 µg/mL | MIC [8]: 16 µg/mL | MIC [9]: 4 µg/mL | MIC [10]: 4 µg/mL | MIC [12]: 0.5 µg/mL | MIC [13]: 1 µg/mL | MIC [14]: 4 µg/mL | MIC [15]: 0.5 µg/mL | MIC [16]: 0.5 µg/mL

Nc1nc(/C(=N/O)C(=O)N[C@@H]2C(=O)N3C(C(=O)O)=C(Sc4ccncc4CSC[C@H](N)CO)CS[C@H]23)c(Cl)s1 [Cmpd 65, (7R)-7-[(Z)-2-(2-amino-5-chlorothiazol-4-yl)-2-(hydroxyimino)acetamido]-3-[3-(2R-2-amino-3-hydroxyprop-1-ylthiomethyl)pyrid-4-ylthio]-3-cephem-4-carboxylate, trifluoroacetic acid salt]
MIC [1]: 0.5 µg/mL | MIC [2]: 2 µg/mL | MIC [3]: 0.5 µg/mL | MIC [4]: > 32 µg/mL | MIC [5]: 4 µg/mL | MIC [6]: 16 µg/mL | MIC [7]: 2 µg/mL | MIC [8]: 16 µg/mL | MIC [9]: 4 µg/mL | MIC [10]: 4 µg/mL | MIC [11]: 0.5 µg/mL | MIC [12]: 1 µg/mL | MIC [14]: 4 µg/mL | MIC [15]: 0.5 µg/mL | MIC [16]: 0.25 µg/mL | responders at 0.3125 mg/kg ([17]; read-out: Survivors): 10% | responders at 0.625 mg/kg ([17]; read-out: Survivors): 20% | responders at 1.25 mg/kg [17]: 10% | responders at 2.5 mg/kg ([17]; read-out: Survivors): 30% | responders at 5 mg/kg ([17]; Dose 5 mg/kg, read-out: Survivors): 80% | ED50 [17]: 3.1 mg/kg

NCCCCCOCc1cnccc1SC1=C(C(=O)O)N2C(=O)[C@@H](NC(=O)/C(=N\O)c3nc(N)sc3Cl)[C@H]2SC1 [Cmpd 44, (7R)-7-[(Z)-2-(2-amino-5-chlorothiazol-4-yl)-2-(hydroxyimino)acetamido]-3-(3-(5-aminopentyloxymethyl)pyrid-4-ylthio)-3-cephem-4-carboxylate, trifluoroacetic acid salt]
MIC [1]: 0.5 µg/mL | MIC [2]: 4 µg/mL | MIC [3]: 0.5 µg/mL | MIC [4]: > 32 µg/mL | MIC [5]: 4 µg/mL | MIC [6]: 16 µg/mL | MIC [7]: 2 µg/mL | MIC [8]: 8 µg/mL | MIC [9]: 4 µg/mL | MIC [10]: 8 µg/mL | MIC [11]: 2 µg/mL | MIC [12]: 2 µg/mL | MIC [13]: 4 µg/mL | MIC [14]: 4 µg/mL | MIC [16]: 0.13 µg/mL

NCCS(=O)(=O)Cc1cnccc1SC1=C(C(=O)O)N2C(=O)[C@@H](NC(=O)/C(=N\O)c3nc(N)sc3Cl)[C@H]2SC1 [Cmpd 45, (7R)-7-[(Z)-2-(2-amino-5-chlorothiazol-4-yl)-2-(hydroxyimino)acetamido]-3-(3-aminoethylsulfonylmethylpyrid-4-ylthio)-3-cephem-4-carboxylate, trifluoroacetic acid salt]
MIC [1]: 1 µg/mL | MIC [2]: 4 µg/mL | MIC [3]: 1 µg/mL | MIC [4]: > 32 µg/mL | MIC [5]: 4 µg/mL | MIC [6]: 16 µg/mL | MIC [7]: 4 µg/mL | MIC [8]: 16 µg/mL | MIC [9]: 4 µg/mL | MIC [10]: 8 µg/mL | MIC [11]: 2 µg/mL | MIC [12]: 2 µg/mL | MIC [13]: 2 µg/mL | MIC [14]: 4 µg/mL | MIC [16]: 0.13 µg/mL
